In experiment [1] the target is T1, NRK2 (Homo sapiens, UniProt Q9NPI5).
T1 construct: gene NMRK2; recombinant human NRK2 (CDS of NM_170678.2) in pET22b, E. coli Rosetta (DE3)
Put plainly: HPLC of conversion of NR to NMN by purified enzyme. The experiment is classed as biochemical.

For experiment [2], the target named is T2, NRK1 (Homo sapiens, UniProt Q9NWW6).
T2 construct: gene NMRK1; recombinant human NRK1 (CDS of NM_017881.3) in pET22b, E. coli Rosetta (DE3)
T2 sequence (Q9NWW6 1-199): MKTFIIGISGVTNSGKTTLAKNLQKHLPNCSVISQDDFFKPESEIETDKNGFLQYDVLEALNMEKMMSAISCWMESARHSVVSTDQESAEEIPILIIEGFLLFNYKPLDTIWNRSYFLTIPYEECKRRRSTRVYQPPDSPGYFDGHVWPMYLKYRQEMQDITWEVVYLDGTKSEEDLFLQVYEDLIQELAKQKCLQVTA
Put plainly: HPLC of conversion of NR to NMN by purified enzyme. The experiment is classed as biochemical.

T1 sequence (Q9NPI5 whole entry): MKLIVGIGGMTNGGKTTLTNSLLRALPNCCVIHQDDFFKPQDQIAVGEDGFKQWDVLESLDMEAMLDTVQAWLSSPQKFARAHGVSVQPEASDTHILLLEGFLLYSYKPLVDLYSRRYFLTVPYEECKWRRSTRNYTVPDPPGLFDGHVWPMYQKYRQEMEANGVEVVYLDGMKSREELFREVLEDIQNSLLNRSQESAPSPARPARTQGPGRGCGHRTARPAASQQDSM

With `NC(=O)c1ccc[n+]([C@@H]2O[C@H](CO)[C@@H](O)[C@H]2O)c1` [NR, nicotinamide riboside], the “HPLC of conversion of NR to NMN by purified enzyme” value turned out to be 17.28 pmol NR/µg/h in experiment [1] and 12.03 pmol NR/µg/h in experiment [2].

The values are drawn from PMC11429243, “The Fluorinated NAD Precursors Enhance FK866 Cytotoxicity by Activating SARM1 in Glioblastoma Cells” (Biology, 2024).
